Results as given in ChEMBL document CHEMBL1143251 (J Med Chem, 2008).
Activity calls are given as the source filed them. The rule behind the calls is not given here.

What was measured:
[1] = Displacement of [3H]DTG from opioid sigma2 receptor in rat brain homogenate; type: tissue-based
[2] = Displacement of [3H]bremazocine from opioid receptor in rat brain homogenate; type: tissue-based
[3] = target: Norepinephrine transporter (Rattus norvegicus, UniProt Q9WTR4); assay: Displacement of [3H]nisoxetine from norepinephrine transporter in rat brain homogenate; type: tissue-based
Glutamate NMDA receptor = assay: Displacement of [3H]TCP from NMDA receptor in rat brain homogenate; type: tissue-based
[4] = target: Sodium-dependent dopamine transporter (Rattus norvegicus, UniProt P23977); assay: Displacement of [3H]WIN-35428 from dopamine transporter in rat brain homogenate; type: tissue-based
Rattus norvegicus = species: Rattus norvegicus; assay: Ratio of Ki for rat sigma1 opioid receptor to Ki for rat sigma2 opioid receptor
[5] = Displacement of [3H]ketanserin from 5HT2 receptor in rat brain homogenate; type: tissue-based
[6] = target: Sodium-dependent serotonin transporter (Rattus norvegicus, UniProt P31652); assay: Displacement of [3H]paroxetine from serotonin transporter in rat brain homogenate; type: tissue-based
[7] = target: Sigma non-opioid intracellular receptor 1 (Rattus norvegicus, UniProt Q9R0C9); assay: Displacement of [3H](+)-pentazocine from opioid sigma1 receptor in rat brain homogenate; type: tissue-based
Mus musculus = assay: Inhibition of cocaine-induced convulsions in ip dosed Swiss Webster mouse after 15 mins; type: functional, organism-based

Sequence of Sigma non-opioid intracellular receptor 1 (Q9R0C9 whole entry): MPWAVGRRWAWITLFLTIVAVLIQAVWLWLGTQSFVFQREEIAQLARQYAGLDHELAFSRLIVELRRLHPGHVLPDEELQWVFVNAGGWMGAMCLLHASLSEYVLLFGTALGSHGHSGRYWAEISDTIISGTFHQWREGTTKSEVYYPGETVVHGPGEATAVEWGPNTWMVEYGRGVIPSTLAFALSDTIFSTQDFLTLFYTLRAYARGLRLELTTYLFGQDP
Sequence of Norepinephrine transporter (Q9WTR4 whole entry): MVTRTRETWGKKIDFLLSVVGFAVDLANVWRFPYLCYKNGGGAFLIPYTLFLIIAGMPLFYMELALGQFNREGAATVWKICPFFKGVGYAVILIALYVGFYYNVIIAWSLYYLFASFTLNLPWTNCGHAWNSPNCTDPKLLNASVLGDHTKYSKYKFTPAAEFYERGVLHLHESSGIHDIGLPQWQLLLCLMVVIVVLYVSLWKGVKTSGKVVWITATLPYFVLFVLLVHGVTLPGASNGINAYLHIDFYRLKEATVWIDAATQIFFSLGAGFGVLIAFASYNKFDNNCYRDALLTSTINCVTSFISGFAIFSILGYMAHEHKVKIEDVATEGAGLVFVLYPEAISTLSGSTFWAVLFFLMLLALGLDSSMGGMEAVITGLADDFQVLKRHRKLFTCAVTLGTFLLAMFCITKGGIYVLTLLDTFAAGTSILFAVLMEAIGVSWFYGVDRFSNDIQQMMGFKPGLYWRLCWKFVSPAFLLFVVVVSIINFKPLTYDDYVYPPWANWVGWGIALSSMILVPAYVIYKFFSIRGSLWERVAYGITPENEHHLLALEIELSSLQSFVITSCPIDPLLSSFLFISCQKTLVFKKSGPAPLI
Sequence of Sodium-dependent dopamine transporter (P23977 whole entry): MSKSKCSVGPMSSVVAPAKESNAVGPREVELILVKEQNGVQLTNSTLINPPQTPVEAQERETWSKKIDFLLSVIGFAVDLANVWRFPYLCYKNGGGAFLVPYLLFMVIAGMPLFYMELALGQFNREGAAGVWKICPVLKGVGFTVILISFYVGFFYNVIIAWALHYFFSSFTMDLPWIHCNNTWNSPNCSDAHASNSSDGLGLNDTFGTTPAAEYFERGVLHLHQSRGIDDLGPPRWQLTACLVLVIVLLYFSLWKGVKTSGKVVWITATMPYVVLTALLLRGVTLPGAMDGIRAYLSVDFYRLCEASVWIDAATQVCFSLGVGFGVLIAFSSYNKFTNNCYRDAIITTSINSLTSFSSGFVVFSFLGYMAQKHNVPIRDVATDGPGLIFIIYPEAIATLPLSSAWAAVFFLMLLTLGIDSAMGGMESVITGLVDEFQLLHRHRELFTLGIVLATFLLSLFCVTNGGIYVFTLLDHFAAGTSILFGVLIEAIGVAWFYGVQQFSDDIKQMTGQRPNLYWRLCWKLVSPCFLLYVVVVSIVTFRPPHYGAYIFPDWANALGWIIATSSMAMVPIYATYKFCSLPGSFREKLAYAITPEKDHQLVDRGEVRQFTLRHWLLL
Sequence of Sodium-dependent serotonin transporter (P31652 whole entry): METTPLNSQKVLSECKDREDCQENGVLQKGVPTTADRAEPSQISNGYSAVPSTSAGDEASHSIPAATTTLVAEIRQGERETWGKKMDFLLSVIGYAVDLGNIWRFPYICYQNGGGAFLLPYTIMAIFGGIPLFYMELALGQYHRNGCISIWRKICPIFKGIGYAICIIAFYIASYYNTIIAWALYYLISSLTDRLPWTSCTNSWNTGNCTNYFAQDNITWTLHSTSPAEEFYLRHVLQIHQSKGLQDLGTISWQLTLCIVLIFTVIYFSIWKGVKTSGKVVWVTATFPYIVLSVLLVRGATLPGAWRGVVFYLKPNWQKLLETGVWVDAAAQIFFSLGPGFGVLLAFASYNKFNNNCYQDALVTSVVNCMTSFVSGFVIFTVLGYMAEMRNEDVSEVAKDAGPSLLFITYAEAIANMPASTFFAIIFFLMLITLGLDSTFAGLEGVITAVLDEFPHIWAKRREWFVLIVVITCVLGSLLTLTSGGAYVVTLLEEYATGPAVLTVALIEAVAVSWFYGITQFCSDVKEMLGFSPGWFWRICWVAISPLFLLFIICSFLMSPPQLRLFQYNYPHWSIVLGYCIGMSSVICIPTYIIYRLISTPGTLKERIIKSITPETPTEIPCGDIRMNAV

| SMILES | Ki [1] [nM] | Ratio Ki (Rattus norvegicus) | also measured |
| --- | --- | --- | --- |
| O=c1sc2ccccc2n1CCCCN1CCN(C2CCCCC2)CC1 | 0.39 |  |  |
| O=c1sc2ccccc2n1CCN1CCN(C2CCCCC2)CC1 | 2.25 |  |  |
| O=c1oc2ccccc2n1CCCCCCN1CCN(C2CCCCC2)CC1 | 3.06 | 1.5 |  |
| S=c1oc2ccccc2n1CCCCN1CCN(C2CCCCC2)CC1 | 0.77 |  |  |
| O=c1sc2ccccc2n1CCCCCCN1CCN(C2CCCCC2)CC1 | 1.49 | 4.4 |  |
| c1ccc2oc(SCCCCN3CCN(C4CCCCC4)CC3)nc2c1 | 3.77 |  |  |
| O=c1sc2ccccc2n1CCCCCN1CCN(C2CCCCC2)CC1 | 2.44 |  |  |
| O=c1oc2ccccc2n1CCCCN1CCN(C2CCCCC2)CC1 | 1.83 | 6.15 |  |
| O=c1sc2ccccc2n1CCCN1CCN(C2CCCCC2)CC1 | 3.05 | 1.84 |  |
| COc1cccc2c1CCCC2CCCN1CCN(C2CCCCC2)CC1 (configuration not stated) | 1.11 | 1.33 | Ki [7]: 1.48 nM |

Second part, led by results:

| Ki [1] [nM] | Ratio Ki (Rattus norvegicus) | SMILES | also measured |
| --- | --- | --- | --- |
| 0.55 | 2.33 | S=c1sc2ccccc2n1CCCCN1CCN(C2CCCCC2)CC1 | Ki [2]: > 10 µM; Ki [3]: > 10 µM; Ki (Glutamate NMDA receptor): > 10 µM; Ki [4]: 1170 nM; Ki [5]: 1330 nM; Ki [6]: 1400 nM |
| 8.74 |  | O=c1oc2ccccc2n1CCCN1CCN(C2CCCCC2)CC1 |  |
| 831 | 0.00014 | CCCc1ccc2c(c1)sc(=O)n2CCN1CCCCCC1 | Ki [7]: 0.12 nM; Activity (Mus musculus): Active |
| 5.89 | 1.79 | O=c1oc2ccccc2n1CCCCCN1CCN(C2CCCCC2)CC1 |  |
| 5.43 |  | O=c1oc2ccccc2n1CCN1CCN(C2CCCCC2)CC1 |  |
